# Data as given in PMC10269622, “Blapstin, a Diapause-Specific Peptide-Like Peptide from the Chinese Medicinal Beetle Blaps rhynchopetera, Has Antifungal Function” (Microbiology Spectrum, 2023).
# Bridge positions count the residues as written; N and C are the ends. Ends that are not written are not given here.
# Columns and labels:
# [1] = system: Escherichia coli ATCC 8739; experiment: MIC, broth double dilution; assay type: cell-based; details: 96-well plate, 37°C, 16 h, absorbance at 600 nm, mean of three independent experiments, ND = no bacteriostatic activity
# Procedure: (§1) The standard strain of C. albicans (ATCC 10231), three clinically isolated antibiotic-resistant strains (C. albicans 0065, C. albicans 0063, and C. albicans 6), E. coli (ATCC 8739), and S. aureus (ATCC 6538) were obtained from Kunming Medical University. T. rubrum was purchased from BeNa Culture Collection (BNCC, CAS no. 340195). Different strains of C. albicans, E. coli, and S. aureus were cultured with shaking at 37°C in YM medium and Luria-Bertani (LB) medium. T. rubrum was cultured at 28°C in potato dextrose agar (PDA) medium according to the manufacturer’s instructions.
# (§2) According to CLSI protocols, the MIC is determined as a point where there is “zero detectable growth,” The MIC of blapstin against different fungal strains was determined by use of the double dilution method, namely, broth dilution determination. In brief, the different strains were grown in their corresponding media at 28°C or 37°C until they reached the exponential growth phase. Colistin E and fluconazole were used as positive controls. Blapstin was diluted to various concentrations in sterile saline: 100 μL of sterile saline was added to the second well of a sterile 96-well plate, and then 100 μL of blapstin was added to the first and second wells. The solution from the second well was double-diluted with sterile saline until the 11th well, from which 100 μL was removed. In the 12th well, no blapstin was added, and sterile saline was used as a negative control. Afterward, 100 μL of the diluted microbial solution was added to each well, followed by incubation at 37°C for 16 h. To assess the antifungal activity of blapstin against the T. rubrum strain, the spore germination rates were first determined microscopically with a hemocytometer. T. rubrum was diluted with normal saline to 1 × 10^5 CFU/mL and then incubated with various concentrations of blapstin at 28°C for 16 h. The absorbance at 600 nm was measured by a microplate reader (Epoch Etock; Biotek, USA) to estimate the inhibition of bacteria and fungi by blapstin.
# [2] = system: Staphylococcus aureus ATCC 6538; experiment: MIC, broth double dilution; assay type: cell-based; details: 96-well plate, 37°C, 16 h, absorbance at 600 nm, mean of three independent experiments, ND = no bacteriostatic activity
# Procedure: as §1, §2
# C. albicans = experiment: Thermostability of antifungal activity (paper disk assay); assay type: physicochemical, Candida albicans; details: for Antifungal activity after heating: 20 μL of 225 μM, then paper disk assay on YM medium, 37°C, 18 h
# Procedure: (i) Effects of temperature. In the test of thermostability of antifungal activity, (20 μL(225 μM) of blapstin was heated at different temperatures (20°C, 40°C, 60°C, 80°C, 90°C, and 100°C) for 30 min and cooled down at 4°C ([63]). Colistin E was used as the positive control, and 1.5% NaCl was used as the negative control. Then, these samples were transferred to the paper disks in the YM solid medium with C. albicans and incubated at 37°C for 18 h for the assay of antifungal activity.
# [3] = system: C. albicans ATCC 10231 biofilm; experiment: CLSM live/dead (FDA/PI) staining of biofilm; assay type: cell-based, Candida albicans; details: 8× MIC, among 0.5× to 8× MIC; 48 h, 37°C
# Procedure: Blapstin at various concentrations (500 μL) was added to 500 μL of the prepared fungal suspension of C. albicans ATCC 10231 (2 × 10^5 CFU/mL) in a sterile 24-well plate to ensure that the final concentration of blapstin ranged from 0.5× to 8× MIC; the plate was incubated for 48 h at 37°C, followed by washing with PBS two to three times to remove unadhered fungal cells. Then, 10 μg/mL of FDA (Solarbio, Beijing, China) and 5 μg/mL of PI (Solarbio, Beijing, China) were added for costaining in the dark for 30 min and washed with PBS twice, as described previously ([68]). Subsequently, the plates were observed using a CLSM (FV 1000; Olympus, Germany). The FDA and PI were excited at 488 nm and 555 nm, respectively, for imaging. Cell viability was assessed based on fluorescence staining; living cells hydrolyze FDA, resulting in the accumulation of green fluorescence, whereas dead cells are stained red by PI. Fluconazole at 10 μΜ and clotrimazole at 10 μΜ were used as a positive control, and sterile 0.9% NaCl was used as a negative control. Green or red fluorescence intensity was calculated using Image J.
# C. albicans ATCC 10231 = experiment: Intracellular ROS burst, H2DCFDA probe; assay type: cell-based, Candida albicans; details: 1×, 8×, 32× MIC, 37°C, 30 min
# Procedure: H2DCFDA is a cell-permeable probe for detecting intracellular ROS ([72]). C. albicans ATCC 10231 was cultured in YM medium to logarithmic stage in a constant-temperature shaking machine at 37°C, centrifuged at 1,000 × g for 5 min to remove the supernatant, and washed with normal saline three times, and then the fungal solution was diluted to an OD600 of 0.1. Different concentrations of blapstin (1× MIC, 8× MIC, 32× MIC) were added to diluted fungal suspension and incubated at 37°C for 30 min. H2O2 at 0.1 mM was used as the positive control, and 0.9% NaCl was used as the negative control. After incubation, the suspension was centrifuged at 1,000 × g for 5 min to discard the supernatant and leave the thallus precipitation. The H2DCFDA dye was dissolved with DMSO and diluted with 0.9% NaCl containing 15% DMSO to achieve a final concentration of 10 μM. The thallus precipitation was mixed with 1 mL of a […] H2DCFDA working solution to each tube, incubated at 37°C for 30 min, and then centrifuged at 1,000 × g for 5 min to remove the supernatant. […] One milliliter of 0.9% NaCl was added to each tube and analyzed with a multifunctional fluorescent enzyme labeling instrument (SynergyH1; Biotek, USA). The excitation/emission wavelengths were set at […], and the ROS burst was monitored. The experiment was repeated three times, with three biological replicates at a time.
# ion channel = experiment: Ion channel inhibition; details: stated in the discussion only, no method or channel given
sequence,measurement,setting,value
"VRVGPCDQVCSRTNPEKDECCRAHGHSGHSSCYGGRMNCYG (disulfide 6-21, 10-32, 20-39 (inferred)) [Blapstin]",MIC,[1],did not affect
same,MIC,[2],did not affect
same,Antifungal activity after heating,C. albicans; 20°C to 90°C for 30 min,full antifungal activity was retained
same,Antifungal activity after heating,C. albicans; 100°C for 30 min,slightly reduced
same,Thermostable up to,"C. albicans; heated 30 min, read-out antifungal activity toward C. albicans",up to 90 °C
same,"Effect on biofilm activity (FDA-labeled live / PI-labeled dead cells, CLSM)",[3],greatest effect
same,Change in ROS fluorescence in C. albicans,C. albicans ATCC 10231,increased
same,Ion channel inhibition activity,ion channel,did not show ion channel inhibition activity
